Test results: patent US11208400B2, “Substituted 6-(1H-pyrazol-1-yl)pyrimidin-4-amine derivatives and uses thereof” (Bayer Aktiengesellschaft, priority 2016, dated 2021)

Biological target: T1, human Npt2a (Homo sapiens, UniProt Q06495)
T1 construct: expressed in transfected cells
T1 sequence (Q06495 1-639): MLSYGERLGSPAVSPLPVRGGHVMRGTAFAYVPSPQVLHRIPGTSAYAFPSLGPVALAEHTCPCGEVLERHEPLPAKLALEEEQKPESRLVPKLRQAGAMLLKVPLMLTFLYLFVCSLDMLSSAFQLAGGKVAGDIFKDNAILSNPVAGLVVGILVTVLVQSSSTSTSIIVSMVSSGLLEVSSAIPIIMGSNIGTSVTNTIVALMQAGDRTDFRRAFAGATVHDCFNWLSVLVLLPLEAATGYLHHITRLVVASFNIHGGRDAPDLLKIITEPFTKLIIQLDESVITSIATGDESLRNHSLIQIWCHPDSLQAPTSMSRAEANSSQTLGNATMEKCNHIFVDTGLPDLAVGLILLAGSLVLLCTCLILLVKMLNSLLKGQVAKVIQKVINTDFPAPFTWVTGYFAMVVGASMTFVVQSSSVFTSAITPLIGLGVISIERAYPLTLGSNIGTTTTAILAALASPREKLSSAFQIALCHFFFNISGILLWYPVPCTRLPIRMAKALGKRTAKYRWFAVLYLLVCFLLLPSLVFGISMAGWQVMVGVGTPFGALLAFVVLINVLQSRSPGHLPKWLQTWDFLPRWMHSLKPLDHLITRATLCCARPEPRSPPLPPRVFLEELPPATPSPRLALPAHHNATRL
Assay: Npt2a activity cell based assay, membrane potential dye, CHO T-REx hNpt2a cells
Details: doxycycline-induced, depolarization by sodium phosphate influx, average or median values if tested more than once
Description: For measuring Npt2a activity in a cell based assay, a stable CHO cell line with inducible Npt2a expression was generated. Therefore, CHO T-Rex cells (life technologies cat. R718-07) were stably transfected with doxycycline-inducible human NPT2a (pcDNA5TO-hNpt2a). The obtained CHO T-REx hNpt2a cells were routinely cultured in Dulbecco's MEM/F12 (4.5 g/l Glucose, Gibco cat. 21331-020; 500 mL) supplemented with 10 ml Glutamax 100×, Sodium pyruvate (7 mL of 100 mM solution), HEPES (10 mL of 1 M solution), Sodium bicarbonate (10 mL of 7.5% solution), 10% Fetal Bovine Serum Tetracycline free (Clontech cat. 631106, 500 ml), Penicillin-Streptomycin (5 mL of 100× Solution), Blasticidin 10 μg/mL and 400 μg/mL Hygromycin.
Activity of Npt2a was detected by following depolarization of cellular membrane potential by influx of sodium phosphate using fluorescent membrane potential dye kit BLUE (Molecular devices cat. R8034). For Npt2a activity measurements, CHO T-Rex hNpt2a cells were seeded into 1536 well microtiter plates (GREINER Bio-One cat. 782092) with 750 cells/well in 7 μL/w of complete medium (2% Tetracycline-free FBS, 2% Poly-D-Lysine) without selective agents+Doxycycline 0.5 μg/mL to induce Npt2a gene expression, and grown for 24 h at 37° C., 5% carbon dioxide.
On the day of experiment a 1×MPdye Loading Solution was freshly prepared by re-suspending 15 mg of Blue MPdye powder in 10 mL of NHE buffer sodium-free (140 mM N-Methyl-D-glucamine, 5.4 mM KCl, 1 mM CaCl2, 11 mM D(±)-Glucose water free, 1.2 mM MgCl2, 10 mM HEPES; pH 7.4 (adjusted with hydrochloric acid); sterile filtered). 5 μl medium was removed from plates by robotic manipulation, then 5 μL/well of sodium-free NHE buffer was added. After incubation for 2 min, this washing step was repeated once. Then, 5 μL/w of buffer was removed from plates and cells were incubated for 5 min at room temperature with 5 μL/w of MPdye Loading Solution (1× in Sodium-free NHE Buffer). Test compounds were added to the cells at final test concentrations between 50 μM and 1 nM (0.6 μL/well, final DMSO 0.6%, prepared in MPDye Loading Solution) and incubated for 5 min at room temperature.
Plates were analyzed with an in house CCD camera device using a λexc 510-545 nm/λem 565-625 nm filter. Fluorescence was detected for 15 sec (background measurement M1). Activity of Npt2a was triggered by addition of 2 μL/well of 30 mM Na+ and 1 mM phosphate (prepared in a mixture of NHE Buffer Na+ free and NHE Buffer 140 mM Na+). Fluorescence was followed for 2-3 min (depolarization measurement M2). Data was normalized to cell number and dye loading efficiency by calculating M2/M1. This quotient was plotted against test compound concentration. Graph Pad Prism or equivalent in house software was used to create sigmoidal dose-response curves (variable slope) and determine IC50 values.

SMILES | IC50 [nM]
Cc1cc(C)n(-c2cc(Nc3c(C)c(-c4ccc(F)cc4)nn3CC(O)C3CC3)ncn2)n1 (racemic) [Example 369, (±)-1-cyclopropyl-2-[5-{[6-(3,5-dimethyl-1H-pyrazol-1-yl)pyrimidin-4-yl]amino}-3-(4-fluorophenyl)-4-methyl-1H-pyrazol-1-yl]ethanol] | 420
Cc1nn(-c2cc(Nc3c(C)c(-c4ccc(F)cc4)nn3CC3CC3)ncn2)c(C)c1C(O)C(F)(F)F (racemic) [Example 374, (±)-1-[1-(6-{[1-(cyclopropylmethyl)-3-(4-fluorophenyl)-4-methyl-1H-pyrazol-5-yl]amino}pyrimidin-4-yl)-3,5-dimethyl-1H-pyrazol-4-yl]-2,2,2-trifluoroethanol] | 63
Cc1nn(-c2cc(Nc3c(C)c(-c4ccc(F)cc4)nn3CC3CC3)ncn2)c2c1C(O)(C(F)(F)F)CC2 (racemic) [Example 386, (±)-1-(6-{[1-(cyclopropylmethyl)-3-(4-fluorophenyl)-4-methyl-1H-pyrazol-5-yl]amino}pyrimidin-4-yl)-3-methyl-4-(trifluoromethyl)-1,4,5,6-tetrahydrocyclopenta[c]pyrazol-4-ol] | 12
Cc1nn(-c2cc(Nc3c(C)c(-c4ccc(C#N)cc4)nn3C)ncn2)c(C)c1C(O)C(F)(F)F (racemic) [Example 387, (±)-4-{5-[(6-{3,5-dimethyl-4-[2,2,2-trifluoro-1-hydroxyethyl]-1H-pyrazol-1-yl}pyrimidin-4-yl)amino]-1,4-dimethyl-1H-pyrazol-3-yl}benzonitrile] | 70
Cc1nn(-c2cc(Nc3c(C)c(-c4ccc(F)cc4)nn3CC3CC3)ncn2)c(C)c1C(O)C(F)F (racemic) [Example 392, (±)-1-[1-(6-{[1-(cyclopropylmethyl)-3-(4-fluorophenyl)-4-methyl-1H-pyrazol-5-yl]amino}pyrimidin-4-yl)-3,5-dimethyl-1H-pyrazol-4-yl]-2,2-difluoroethanol] | 18
Cc1c(-c2ccc(F)cc2)nn(CC2CC2)c1Nc1cc(-n2nc3c(c2C)C(O)(C(F)(F)F)CC3)ncn1 (racemic) [Example 403, (±)-2-(6-{[1-(cyclopropylmethyl)-3-(4-fluorophenyl)-4-methyl-1H-pyrazol-5-yl]amino}pyrimidin-4-yl)-3-methyl-4-(trifluoromethyl)-2,4,5,6-tetrahydrocyclopenta[c]pyrazol-4-ol] | 12
Cc1c(-c2ccc(F)cc2)nn(CC2CC2)c1Nc1cc(-n2nc3c(c2C)C(C)(O)CC3)ncn1 (racemic) [Example 404, (±)-2-(6-{[1-(cyclopropylmethyl)-3-(4-fluorophenyl)-4-methyl-1H-pyrazol-5-yl]amino}pyrimidin-4-yl)-3,4-dimethyl-2,4,5,6-tetrahydrocyclopenta[c]pyrazol-4-ol] | 13
Cc1nn(-c2cc(Nc3c(C)c(-c4ccc(F)cc4)nn3CC3CC3)ncn2)c(C)c1C(O)C1CC1 (racemic) [Example 405, (±)-cyclopropyl[1-(6-{[1-(cyclopropylmethyl)-3-(4-fluorophenyl)-4-methyl-1H-pyrazol-5-yl]amino}pyrimidin-4-yl)-3,5-dimethyl-1H-pyrazol-4-yl]methanol] | 14
COc1c(-c2ccc(C#N)cc2)nn(C)c1Nc1cc(-n2nc(C)c(C(O)C(F)(F)F)c2C)ncn1 (racemic) [Example 425, (±)-4-{5-[(6-{3,5-dimethyl-4-[2,2,2-trifluoro-1-hydroxyethyl]-1H-pyrazol-1-yl}pyrimidin-4-yl)amino]-4-methoxy-1-methyl-1H-pyrazol-3-yl}benzonitrile] | 415
COc1c(Nc2cc(-n3nc(C)c(C(O)C4CC4)c3C)ncn2)nn(C)c1-c1ccc(C#N)cc1 (racemic) [Example 459, (±)-4-{3-[(6-{4-[cyclopropyl(hydroxy)methyl]-3,5-dimethyl-1H-pyrazol-1-yl}pyrimidin-4-yl)amino]-4-methoxy-1-methyl-1H-pyrazol-5-yl}benzonitrile] | 46
